Reference: article PMC3448830 (Bioorganic & medicinal chemistry, 2012)
Values belong to the compound of their own block, whether it stands above or below them.

Assays:
[1] = following chronic administration; cited from earlier work
[2] = biological target: GABA-AT (Sus scrofa, UniProt P80147); assay: Substrate activity for GABA-AT; assay type: biochemical, pig; settings: for Km: substrate, Hanes-Woolf plots, pH 8.5, room temperature, 16 h
Sequence of GABA-AT (P80147 29-500): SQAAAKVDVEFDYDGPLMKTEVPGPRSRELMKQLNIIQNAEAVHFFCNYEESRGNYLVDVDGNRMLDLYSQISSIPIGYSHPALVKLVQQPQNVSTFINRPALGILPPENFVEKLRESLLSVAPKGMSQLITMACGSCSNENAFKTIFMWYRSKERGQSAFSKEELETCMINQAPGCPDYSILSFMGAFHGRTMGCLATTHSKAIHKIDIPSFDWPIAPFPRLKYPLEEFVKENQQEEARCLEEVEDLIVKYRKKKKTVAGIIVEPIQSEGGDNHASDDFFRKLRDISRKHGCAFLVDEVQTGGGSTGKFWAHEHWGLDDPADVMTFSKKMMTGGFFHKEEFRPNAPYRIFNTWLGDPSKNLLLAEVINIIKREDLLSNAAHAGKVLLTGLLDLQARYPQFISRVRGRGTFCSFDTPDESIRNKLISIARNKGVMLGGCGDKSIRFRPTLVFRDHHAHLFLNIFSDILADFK

Compound: C=CC(N)CCC(=O)O (centres unmarked) [Compound 1, 4-aminohex-5-enoic acid]
patients exhibiting irreversible abnormalities in peripherial vision [1]: 25–50%

Compound: Cl.NCc1ccc(C(=O)O)o1 [Compound 4a, 5-(Aminomethyl)furan-2-carboxylic acid hydrochloride]
kcat/Km ([2]; substrate efficiency): highest kcat/Km value

Km [2]: much higher
Compound: Cl.NCc1ccc(C(=O)O)s1 [Compound 4b, 5-(Aminomethyl)thiophene-2-carboxylic acid hydrochloride]

Km [2]: much higher
Compound: Cl.NCc1ccc(C(=O)O)[nH]1 [Compound 4c]

Compound: Cl.NCc1coc(C(=O)O)c1 [Compound 5a, 4-(Aminomethyl)furan-2-carboxylic acid hydrochloride]
Km, fold lower than that of GABA ([2]; relative to GABA): approximately 4 fold

Compound: Cl.NCc1cscc1C(=O)O [Compound 6b, 4-(Aminomethyl)thiophene-3-carboxylic acid hydrochloride]
substrate activity (transamination) [2]: Transamination was observed | Km [2]: > 10 mM

^Hk/^Dk for substrate turnover (kinetic isotope effect) ([2]; [D2]-5a evaluated alongside unlabeled 5a): 1.22 ± 0.07
Compound: Cl.[2H]C([2H])(N)c1coc(C(=O)O)c1 [[D2]-5a]
